One assay addresses Cannabinoid receptor 1 (Rattus norvegicus, UniProt P20272). Kind of assay: Displacement of [3H]CP-55940 from CB1 receptor in Sprague-Dawley rat brain cortex membranes. It is filed as cell membranes, Membrane.
For a further assay, the target named is Cannabinoid receptor 2 (Homo sapiens, UniProt P34972). Kind of assay: Displacement of [3H]CP-55940 from human CB2 receptor expressed in CHO cells after 1 hr by liquid scintillation spectrometry analysis. It counts as cell-based.
Chain of Cannabinoid receptor 2 (P34972 whole entry): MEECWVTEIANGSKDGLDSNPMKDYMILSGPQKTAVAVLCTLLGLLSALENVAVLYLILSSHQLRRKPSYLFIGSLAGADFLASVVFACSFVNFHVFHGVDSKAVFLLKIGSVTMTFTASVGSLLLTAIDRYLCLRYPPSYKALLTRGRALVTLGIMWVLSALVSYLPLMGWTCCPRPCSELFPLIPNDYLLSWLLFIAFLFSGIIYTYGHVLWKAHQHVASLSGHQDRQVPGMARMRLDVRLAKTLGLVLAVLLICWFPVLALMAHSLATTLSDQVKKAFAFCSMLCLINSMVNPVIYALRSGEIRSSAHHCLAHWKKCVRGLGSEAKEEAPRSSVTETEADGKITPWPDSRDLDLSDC

Chain of Cannabinoid receptor 1 (P20272 whole entry): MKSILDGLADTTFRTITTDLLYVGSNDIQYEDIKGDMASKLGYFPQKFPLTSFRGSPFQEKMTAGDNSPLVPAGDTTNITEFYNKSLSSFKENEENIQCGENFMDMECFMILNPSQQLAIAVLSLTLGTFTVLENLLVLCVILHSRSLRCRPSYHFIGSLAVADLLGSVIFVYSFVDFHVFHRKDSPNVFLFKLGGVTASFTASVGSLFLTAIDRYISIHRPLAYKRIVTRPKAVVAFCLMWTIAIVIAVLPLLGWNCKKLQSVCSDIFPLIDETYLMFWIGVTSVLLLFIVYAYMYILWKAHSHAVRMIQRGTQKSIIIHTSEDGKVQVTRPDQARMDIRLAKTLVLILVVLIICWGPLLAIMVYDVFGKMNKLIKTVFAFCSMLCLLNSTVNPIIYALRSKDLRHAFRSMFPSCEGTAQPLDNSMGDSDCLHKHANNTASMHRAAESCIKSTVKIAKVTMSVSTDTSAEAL

On Cannabinoid receptor 1, `CCCCCCC(C)(C)c1ccc([C@H]2CCC[C@@H](O)C2)c(O)c1` had a Ki of 9.54 nM.

On to `CCCCCCC(C)(C)c1ccc([C@H]2CCC[C@@H](O)C2)c(OC)c1` (relative stereo), for which the Ki is over 10000 nM at Cannabinoid receptor 1 and 808 nM at Cannabinoid receptor 2.

For the molecule `CCCCCC(C)(C)c1ccc([C@H]2CCC[C@H](O)C2)c(OC)c1` (relative stereo), the inhibition constant (Ki) at Cannabinoid receptor 1 was determined as 4120 nM; on Cannabinoid receptor 2 it was 693 nM.

As to `CCCCCCC(C)(C)c1ccc([C@H]2CCC[C@H](O)C2)cc1` (relative stereo), the inhibitory constant (Ki) came to 645 nM at Cannabinoid receptor 1 and 178 nM at Cannabinoid receptor 2.

Regarding `CCCCCC(C)(C)c1ccc([C@H]2CCC[C@@H](O)C2)c(OC)c1` (relative stereo), the inhibition constant (Ki) at Cannabinoid receptor 1 came out at 4410 nM; at Cannabinoid receptor 2 it was 553 nM.

(Values after ChEMBL document CHEMBL1212847, “Synthesis and pharmacology of 1-methoxy analogs of CP-47,497” (Bioorg Med Chem, 2010).)
